21 compounds from US8354414B2, “Substituted bicyclic pyrimidines” (Cephalon, Inc, priority 2006, dated 2013) can be followed below.

Assay [1] has as its target T1, CDK5/GST-p25 (Homo sapiens, UniProt Q00535).
T1 construct: The final construct, encoding for full-length human CDK5; made in house; host or cells: Sf21 insect cells (baculovirus co-infection)
Kind of assay: Inhibition of CDK5/GST-p25 kinase activity (ELISA with time-resolved fluorescence readout). The class given is biochemical. The method in brief:
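Sf21-coexpressed full-length human CDK5 with GST-p25 (p35 aa 108-307), glutathione-purified, at 2 ng/ml was reacted for 20 min at 37 °C on plate-coated GST-Rb(773-928). Buffer was 20 mM HEPES pH 7.2, 10 µM ATP, 10 mM MgCl2 and 2.5% DMSO. Phospho-Rb Ser-780 was detected by Eu-labelled antibody TRF, and IC50 curves were fitted.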
A general note: In an ELISA, binding on a coated surface is turned into a signal by an enzyme label.

For assay [2], the target named is T2, His6-GSK-3β (Homo sapiens, UniProt P49841).
T2 construct: made in house; host or cells: Sf21 insect cells (baculovirus)
T2 sequence (P49841 2-419): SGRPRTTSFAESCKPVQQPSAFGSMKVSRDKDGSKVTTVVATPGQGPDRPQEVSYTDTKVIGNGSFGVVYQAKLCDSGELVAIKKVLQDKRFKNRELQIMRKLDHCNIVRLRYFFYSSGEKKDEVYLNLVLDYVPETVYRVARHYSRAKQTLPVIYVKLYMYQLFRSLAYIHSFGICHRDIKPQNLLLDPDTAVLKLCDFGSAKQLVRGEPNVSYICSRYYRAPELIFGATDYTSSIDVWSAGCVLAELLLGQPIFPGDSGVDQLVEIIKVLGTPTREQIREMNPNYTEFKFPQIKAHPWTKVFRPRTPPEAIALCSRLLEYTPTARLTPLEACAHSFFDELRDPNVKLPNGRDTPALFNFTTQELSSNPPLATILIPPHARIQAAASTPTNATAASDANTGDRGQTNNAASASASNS
Kind of assay: Inhibition of His6-GSK-3β kinase activity (ELISA-based format, time-resolved fluorescence readout). The class given is biochemical. Particulars: for IC50: class symbols, read-out: GSK3β IC50. The method in brief:
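N-terminal His6-tagged full-length human GSK-3β (aa 2-419) expressed in Sf21 cells, 200 ng/ml, phosphorylating plate-coated GST-Rb with 20 μM ATP in pH 7.2 HEPES buffer, 30 min at 37° C. Phospho-Rb (Ser-780) detected by antibody plus Eu-labelled secondary, time-resolved fluorescence; IC50 from curves.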

T1 sequence (Q00535 whole entry): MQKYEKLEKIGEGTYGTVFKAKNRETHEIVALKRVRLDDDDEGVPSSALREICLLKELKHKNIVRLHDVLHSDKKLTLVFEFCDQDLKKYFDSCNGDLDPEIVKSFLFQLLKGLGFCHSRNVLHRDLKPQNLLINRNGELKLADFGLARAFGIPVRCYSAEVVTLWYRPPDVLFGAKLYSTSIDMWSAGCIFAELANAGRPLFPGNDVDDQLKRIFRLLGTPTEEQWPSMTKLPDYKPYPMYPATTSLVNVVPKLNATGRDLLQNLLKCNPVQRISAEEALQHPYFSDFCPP
T1 sequence (Q15078 108-307 partner limits assumed): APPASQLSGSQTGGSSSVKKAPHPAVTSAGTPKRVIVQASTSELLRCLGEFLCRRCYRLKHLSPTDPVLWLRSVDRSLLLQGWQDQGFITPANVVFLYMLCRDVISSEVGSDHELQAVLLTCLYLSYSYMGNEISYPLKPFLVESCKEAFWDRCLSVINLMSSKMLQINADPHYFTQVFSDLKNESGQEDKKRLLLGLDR

As usually defined, the IC50 is the concentration that inhibits the measured activity by half. Consider `O=C1Nc2ccc(Cl)cc2C1c1nc(NCc2ccc(C(F)(F)F)nc2)nc2c1CCC2` (stereo not drawn) [Example 329, 5-Chloro-3-{2-[(6-trifluoromethyl-pyridin-3-ylmethyl)-amino]-6,7-dihydro-5H-cyclopentapyrimidin-4-yl}-1,3-dihydro-indol-2-one], for which the IC50 in assay [1] (class symbols) was above 10 µM; in assay [2], above 10000 nM.

Turning to `CCOCCNc1nc2c(c(C3C(=O)Nc4ccc(F)cc43)n1)CCC2` (stereo not drawn) [Example 319, 3-[2-(2-Ethoxy-ethylamino)-6,7-dihydro-5H-cyclopentapyrimidin-4-yl]-5-fluoro-1,3-dihydro-indol-2-one], the IC50 in assay [1] (class symbols) was above 10 µM; in assay [2], above 10000 nM.

Consider `N#Cc1ccc2c(c1)C(c1nc(NCCc3ccccc3)nc3nn(C4CCCC4)cc13)C(=O)N2` (stereo not drawn) [Example 134, 3-(2-cyclopentyl-6-2-phenethylamino-2H-pyrazolo [3,4-d]pyrimidin-4-yl)-2-oxo-2,3-dihydro-1H-indole-5-carbonitrile], for which the results for the IC50 in assay [1] (numeric bounds) and in assay [2] were above 3 µM and below 300 nM, respectively.

Turning to `O=C1Nc2ccc(Br)cc2C1c1nc(NCc2ccncc2)nc2nn(C3CCCC3)cc12` (stereo not drawn) [Example 180, 5-Bromo-3-{2-cyclopentyl-6-[(pyridin-4-ylmethyl)-amino]-2H-pyrazolo[3,4-d]pyrimidin-4-yl}-1,3-dihydro-1H-indol-2-one], the IC50 in assay [1] (class symbols) is below 0.3 µM; in assay [2] it was below 300 nM.

Take `N#Cc1ccc2c(c1)C(c1nc(O)nc3nn(C4CCCC4)cc13)C(=O)N2` (stereo not drawn) [Example 120, 3-(2-cyclopentyl-6-hydroxy-2H-pyrazolo [3,4-d]pyrimidin-4-yl)-2-oxo-2,3-dihydro-1H-indole-5-carbonitrile]: the IC50 in assay [1] (class symbols) was above 10 µM; in assay [2], below 300 nM.

With `N#Cc1ccc2c(c1)C(c1nc(NCc3ccc(Cl)nc3)nc3nn(C4CCCC4)cc13)C(=O)N2` (stereo not drawn) [Example 171, 3-{6-[(6-Chloro-pyridin-3-ylmethyl)-amino]-2-cyclopentyl-2H-pyrazolo[3,4-d]pyrimidin-4-yl}-2-oxo-2,3-dihydro-1H-indole-5-carbonitrile], the results for the 50% inhibitory concentration (IC50) in assay [1] (class symbols) and in assay [2] were below 0.3 µM and below 300 nM, respectively.

For `N#Cc1ccc2c(c1)C(c1nc(NCc3ccccn3)nc3nn(C4CCCC4)cc13)C(=O)N2` (stereo not drawn) [Example 123, 3-{2-cyclopentyl-6-[(pyridin-2-yl-methyl)amino]-2H-pyrazolo[3,4-d]pyrimidin-4-yl}-2-oxo-2,3-dihydro-1H-indole-5-carbonitrile], the results for the IC50 in assay [1] (class symbols) and in assay [2] were below 0.3 µM and below 300 nM, respectively.

As to `CCCCN1CCC(CNc2nc(C3C(=O)Nc4ccc(Cl)cc43)c3cn(C4CCCC4)nc3n2)CC1` (stereo not drawn) [Example 275, 3-{6-[(1-Butyl-piperidin-4-ylmethyl)-amino]-2-cyclopentyl-2H-pyrazolo[3,4-d]pyrimidin-4-yl}-5-chloro-1,3-dihydro-indol-2-one], the IC50 is above 10 µM in assay [1] (class symbols) and below 300 nM in assay [2].

For the compound `N#Cc1ccc2c(c1)C(c1nc(NCc3ccncc3)nc3nn(C4CCCC4)cc13)C(=O)N2` (stereo not drawn) [Example 176, 3-{2-Cyclopentyl-6-[(pyridin-4-ylmethyl)-amino]-2H-pyrazolo[3,4-d]pyrimidin-4-yl}-2-oxo-2,3-dihydro-1H-indole-5-carbonitrile], the IC50 in assay [1] (class symbols) is below 0.3 µM; in assay [2] it was below 300 nM.

Take `O=C1Nc2ccc(Br)cc2C1c1nc(NCCN2CCOCC2)nc2c1CCC2` (stereo not drawn) [Example 332, 5-Bromo-3-[2-(2-morpholin-4-yl-ethylamino)-6,7-dihydro-5H-cyclopentapyrimidin-4-yl]-1,3-dihydro-indol-2-one]: the half-inhibitory concentration (IC50) in assay [1] (numeric bounds) is above 3 µM; in assay [2] it was 300 to 3000 nM.

Turning to `N#Cc1ccc2c(c1)C(c1nc(NCc3cccnc3)nc3c1CCC3)C(=O)N2` (stereo not drawn) [Example 348, 2-Oxo-3-{2-[(pyridin-3-ylmethyl)-amino]-6,7-dihydro-5H-cyclopentapyrimidin-4-yl}-2,3-dihydro-1H-indole-5-carbonitrile], the half-inhibitory concentration (IC50) is below 0.3 µM in assay [1] (class symbols) and 300 to 3000 nM in assay [2].

As for `CN(Cc1cccnc1)c1nc(C2C(=O)Nc3ccc(C#N)cc32)c2cn(C3CCCC3)nc2n1` (stereo not drawn) [Example 172, 3-[2-Cyclopentyl-6-(methyl-pyridin-3-ylmethyl-amino)-2H-pyrazolo [3,4-d]pyrimidin-4-yl]-2-oxo-2,3-dihydro-1H-indole-5-carbonitrile], the half-maximal inhibitory concentration (IC50) in assay [1] (class symbols) is above 10 µM; in assay [2], below 300 nM.

As for `Cn1cc2c(C3C(=O)Nc4ccc(Cl)cc43)ncnc2n1` (stereo not drawn) [Example 83, 5-Chloro-3-(2-methyl-2H-pyrazolo[3,4-d]pyrimidin-4-yl)-1,3-dihydro-indol-2-one], the IC50 in assay [1] (class symbols) is below 0.3 µM; in assay [2], 300 to 3000 nM.

As to `CNCCCNc1nc(C2C(=O)Nc3ccc(Br)cc32)c2cn(CCOC)nc2n1` (stereo not drawn) [Example 226, 5-Bromo-3-[2-(2-methoxy-ethyl)-6-(3-methylamino-propylamino)-2H-pyrazolo[3,4-d]pyrimdin-4-yl]-1,3-dihydro-indol-2-one], the 50% inhibitory concentration (IC50) was below 0.3 µM in assay [1] (class symbols) and below 300 nM in assay [2].

Take `O=C1Nc2ccc(F)cc2C1c1nc(NCc2ccccn2)nc2c1CCC2` (stereo not drawn) [Example 322, 5-Fluoro-3-{2-[(pyridin-2-ylmethyl)-amino]-6,7-dihydro-5H-cyclopentapyrimidin-4-yl}-1,3-dihydro-indol-2-one]: the half-inhibitory concentration (IC50) in assay [1] (numeric bounds) was above 3 µM; in assay [2], above 10000 nM.

With `CCCn1cc2c(C3C(=O)Nc4ccc(C#N)cc43)nc(NCc3cccnc3)nc2n1` (stereo not drawn) [Example 184, 2-Oxo-3-{2-propyl-6-[(pyridin-3-ylmethyl)-amino]-2H-pyrazolo[3,4-d]pyrimidin-4-yl}-2,3-dihydro-1H-indole-5-carbonitrile], the IC50 in assay [1] (class symbols) was below 0.3 µM; in assay [2], below 300 nM.

Take `CN(C)CCNc1nc(C2C(=O)Nc3ccc(Br)cc32)c2cn(C)nc2n1` (stereo not drawn) [Example 359, 5-Bromo-3-[6-(2-dimethylamino-ethylamino)-2-methyl-2H-pyrazolo[3,4-d]pyrimidin-4-yl]-1,3-dihydro-indol-2-one]: the IC50 in assay [1] (class symbols) fell in the range of 0.3 to 3 µM; in assay [2], 300 to 3000 nM.

With `N#Cc1ccc2c(c1)C(c1nc(NCCc3ccccn3)nc3nn(C4CCCC4)cc13)C(=O)N2` (stereo not drawn) [Example 125, 3-[2-cyclopentyl-6-(2-pyridin-2-yl-ethylamino)-2H-pyrazolo [3,4-d]pyrimidin-4-yl]-2-oxo-2,3-dihydro-1H-indole-5-carbonitrile], the IC50 in assay [1] (class symbols) was above 10 µM; in assay [2], below 300 nM.

In the case of `O=C1Nc2ccc(F)cc2C1c1nc(Cl)nc2c1CCC2` (stereo not drawn) [Example 315, 3-(2-Chloro-6,7-dihydro-5H-cyclopentapyrimidin-4-yl)-5-fluoro-1,3-dihydro-indol-2-one], the results for the IC50 in assay [1] (class symbols) and in assay [2] were above 10 µM and above 10000 nM, respectively.

On to `CCCn1cc2c(C3C(=O)Nc4ccc(Br)cc43)nc(NC[C@H]3CCCO3)nc2n1` (stereo partly drawn) [Example 366, 5-Bromo-3-(2-propyl-6-{[(R)-1-(tetrahydro-furan-2-yl)methyl]-amino}-2H-pyrazolo[3,4-d]pyrimidin-4-yl)-1,3-dihydro-indol-2-one], for which the IC50 is below 0.3 µM in assay [1] (class symbols) and below 300 nM in assay [2].

For the compound `N#Cc1ccc2c(c1)C(c1nc(NCCc3ccncc3)nc3c1CCC3)C(=O)N2` (stereo not drawn) [Example 345, 2-Oxo-3-[2-(2-pyridin-4-yl-ethylamino)-6,7-dihydro-5H-cyclopentapyrimidin-4-yl]-2,3-dihydro-1H-indole-5-carbonitrile], the half-maximal inhibitory concentration (IC50) in assay [1] (class symbols) was above 10 µM. Moreover, in assay [2] (@10 μM), the “GSK3β % @10 μM” value came to 67% @10 μM.
